Experimental data published in publication PMC12044245 (Emerging Infectious Diseases, 2025).

How the values were obtained:
Assay type in all cases: biochemical
[1] = molecular target: NA (neuraminidase) of A/Yamagata/336/2023 (Influenza A virus, UniProt C3W5S3)
[2] = molecular target: NA (neuraminidase) of A/Yamagata/292/2023 (Influenza A virus, UniProt C3W5S3)
[3] = molecular target: NA (neuraminidase) of A/Yamagata/122/2023 (Influenza A virus, UniProt C3W5S3)
[4] = molecular target: NA (neuraminidase) of A/Yamagata/312/2023 (Influenza A virus, UniProt C3W5S3)
[5] = molecular target: NA (neuraminidase) of A/Yamagata/177/2023 (Influenza A virus, UniProt C3W5S3)
[6] = molecular target: NA (neuraminidase) of A/Yamagata/135/2023 (Influenza A virus, UniProt C3W5S3)
[7] = molecular target: NA (neuraminidase) of A/Yamagata/104/2024 (Influenza A virus, UniProt C3W5S3)
[8] = molecular target: NA (neuraminidase) of A/Yamagata/127/2023 (Influenza A virus, UniProt C3W5S3)

Compound: CCC(CC)[C@H](NC(C)=O)[C@@H]1[C@H](O)[C@@H](C(=O)O)C[C@H]1N=C(N)N [Peramivir, peramivir]
- IC50 [1]: 0.09 nM
- IC50 [2]: 0.09 nM
- IC50 [3]: 0.08 nM
- IC50 [4]: 0.11 nM
- IC50 [5]: 0.06 nM
- IC50 [6]: 0.08 nM
- IC50 [7]: 0.09 nM
- IC50 [8]: 0.08 nM
